Reference: patent publication US12408664B2 (priority 2018, dated 2025)
“Also recorded” adds a separate entry of the source. Where two headings read alike, the source gives them in different places.

Tests used:
dollar spot = assay: Golf Course 1: infected live turfgrass, visual inspection for dollar spot; type: in vivo, Scerotinia homoeocarpa
Procedure: Calcium propionate was dissolved in water to form a 5% (w/v) solution. […] Zone 1 was left untreated, Zone 2 was treated with 2.5 grams calcium propionate per square meter, Zone 3 was treated with 5 grams of calcium propionate per square meter, and Zone 4 was treated with 10 grams of calcium propionate per square meter. The turfgrass was comprised primarily of Festuca rubra. The calcium propionate 5% (w/v) solution was sprayed onto the turfgrass.
The four zones were visually inspected for dollar spot after 10 days. […] In contrast, dollar spot could, still be visually detected in untreated Zone 1.
Thereafter, all of the zones (1-4) were treated with 5 grams of calcium propionate per square meter. The calcium propionate 5% (w/v) solution was sprayed onto the turfgrass every 10 to 14 days.

M. poae [1] = type: cell-based, Magnaporthe poae
R. solani [2] = assay: Zone of inhibition assay on PDA plates; type: cell-based, Rhizoctonia solani
Procedure: (§1) To test the efficacy of calcium propionate (CaP) against the four microbes listed above, zone of inhibition assays were performed. Wells were bored in potato dextrose agarose (PDA) plates then amended with […] calcium propionate at concentrations of 0.1%, 0.2%, 0.3%, 0.4%, and 0.5% (w/v). Control plates were amended with […] dH2O. Plates were inoculated using plugs from active cultures. Growth patterns were observed over seven days. Representative results with M. poae are shown at three days following inoculation (FIG. 1A) and seven days following inoculation (FIG. 1B).
(§2) The zone of inhibition assays described in Example 1 were performed using calcium propionate doses of 0.5%, 1%, 2%, 3%, and 4% (w/v). Growth diameter was recorded at 2, 5, and 7 days post inoculation. The data shown in Table 1 represent the average±standard deviation (SD) of two replicate plates for each strain tested.
(§3) Zone of inhibition assays using PDA plates amended with 5-12% (w/v) calcium propionate were performed as described above. As a control, plates were amended with a composition comprising propiconazole, a commonly used fungicidal treatment for microbe infection of turfgrass, sold under the trademark Banner MaxxII®. Growth diameter was recorded for 13 days post inoculation. The data shown in Table 2 represent the average±standard deviation (SD) of three replicate plates for each strain tested. Inoculants of S. homoeocarpa, M. poae, and R. solani generally grow to luxuriant culture, covering the entire surface of the plate (8.5 cm growth) in 7 days.

M. poae [3] = type: cell-based, Magnaporthe poae; remark: listed apart in the source
R. solani [4] = assay: Established liquid cultures, two days calcium propionate then washout; type: cell-based, Rhizoctonia solani
Procedure: To further examine the impact of calcium propionate on established liquid cultures, MEB was inoculated by plug transfer and cultures were allowed to grow for one to six days. Following this, calcium propionate was added to active cultures to a final concentration of 1%, 2%, or 5% (w/v); control cultures had no calcium propionate. Calcium propionate was then added to established one to six day old cultures and cultures were allowed to grow in the presence of calcium propionate for two days, after which, calcium propionate was washed out and cultures were returned to MEB only. Growth following calcium propionate washout was recorded over 14 days.

turfgrass = assay: Golf Course 2: appearance of treated turfgrass; type: in vivo, Agrostis capillaris; details: 3-4 grams per square meter every 10 days; 10 days following initial application
Procedure: (§4) Calcium propionate was dissolved in water to form a 5% (w/v) solution. […] The turfgrass was comprised primarily of Agrostis capillaris. The calcium propionate 5% (w/v) solution was sprayed onto the turfgrass at a concentration of 3-4 grams per square meter every 10 days.

S. homoeocarpa = assay: Zone of inhibition assay on PDA plates; type: cell-based, Scerotinia homoeocarpa
Procedure: as §1, §2, §3

R. solani [5] = assay: New inoculants in MEB liquid culture amended with calcium propionate; type: cell-based, Rhizoctonia solani; details: MEB with 1, 2, 5 and 10% (w/v) calcium propionate; five days
Procedure: To examine the effective dose range in liquid culture, malt extract broth (MEB) was prepared and amended with calcium propionate at concentrations of 1, 2, 5 and 10% (w/v). Unamended MEB was used as a control for growth. Each of the four microbes identified in Example 1 was tested twice by inoculating MEB using agarose plugs from luxuriant cultures. Growth was observed over five days. In each microbe examined, visible growth in liquid culture was apparent by day 2 following inoculation with well-established growth by 4 days in the absence of calcium propionate.

F. oxysporum = assay: Fungal plugs on YPA or PDA amended with CaP; type: cell-based, Fusarium oxysporum; details: seven days, data not shown
Procedure: Cultures of F. oxysporum were grown on PDA medium until luxuriant. To test the effect of calcium propionate (CaP), fungal plugs were transferred to YPA or PDA amended with CaP and growth was monitored for seven days. YPA plates were amended with 1%, 4%, or 15% CaP.

M. poae [6] = type: cell-based, Magnaporthe poae; details: MEB with 1, 2, 5 and 10% (w/v) calcium propionate; five days
Fusarium oxysporum = assay: Golf Course 2: infected live turfgrass, visual detection of Fusarium oxysporum infection; type: in vivo; details: 3-4 grams per square meter every 10 days, 5% (w/v) solution sprayed; 10 days following initial application
Procedure: as §4

[7] = 1%, 2% or 5% (w/v), established one to six day old cultures, two days
[8] = all concentrations tested (1-5% w/v)
[9] = 5-12% (w/v) calcium propionate, day 2, average ± SD of three plates
[10] = 5-12% (w/v) calcium propionate, day 3, average ± SD of three plates
[11] = 5-12% (w/v) calcium propionate, day 6, average ± SD of three plates
[12] = 5-12% (w/v) calcium propionate, day 7, average ± SD of three plates
[13] = 5-12% (w/v) calcium propionate, day 10, average ± SD of three plates
[14] = 5-12% (w/v) calcium propionate, day 13, average ± SD of three plates
[15] = wells 0.1-0.5% (w/v) calcium propionate, observed over seven days
[16] = wells 0.5-4% (w/v) calcium propionate, day 2, average ± SD of two plates
[17] = wells 0.5-4% (w/v) calcium propionate, day 5, average ± SD of two plates
[18] = wells 0.5-4% (w/v) calcium propionate, day 7, average ± SD of two plates
[19] = 2-4% (w/v) calcium propionate, repeat, data not shown
[20] = wells 0.5-4% (w/v) calcium propionate, seven day growth period

`CCC(=O)[O-].CCC(=O)[O-].[Ca+2]` [calcium propionate] was tested, and the “visual detection of dollar spot” value (dollar spot; Zone 2: 2.5 grams per square meter, 5% (w/v) solution sprayed, after 10 days) was “could no longer be visually detected”, the “visual detection of dollar spot” value (dollar spot; Zone 3: 5 grams per square meter, 5% (w/v) solution sprayed, after 10 days) was “could no longer be visually detected” and the “visual detection of dollar spot” value (dollar spot; Zone 4: 10 grams per square meter, 5% (w/v) solution sprayed, after 10 days) was “could no longer be visually detected”. For the same compound, the “visual detection of dollar spot” value (dollar spot; zones 1-4, 5 grams per square meter every 10 to 14 days, several months (late summer to early spring)) was “could not be visually detected”, the “growth recovery over 14 days after removal, M. poae” value (M. poae [1]; 1% or 2% (w/v) calcium propionate) was “varying degrees of growth recovery” and the “growth while calcium propionate was present, M. poae” value (M. poae [1]; [7]) was “growth was inhibited”. For the same compound, the “growth recovery over 14 days after removal, M. poae” value (M. poae [1]; 5% (w/v) treatment) was “no growth recovery was observed”, the “growth three days following removal of calcium propionate, M. poae” value (M. poae [1]; [8]) was “continued growth inhibition” and the “Growth, R. solani” value (R. solani [2]; [9]) was 2.6 ± 0.3 cm. The “Growth, R. solani” value (R. solani [2]; [10]) was 4.3 ± 0.3 cm, the “Growth, R. solani” value (R. solani [2]; [11]) was 8.5 ± 0 cm and the “Growth, R. solani” value (R. solani [2]; [12]) was 8.5 ± 0 cm. For the same compound, the “Growth, R. solani” value (R. solani [2]; [13]) was 8.5 ± 0 cm, the “Growth, R. solani” value (R. solani [2]; [14]) was 8.5 ± 0 cm and the “inhibition of R. solani growth” value (R. solani [2]; calcium propionate concentrations up to 12% (w/v)) was “no inhibition”. The “growth inhibition, R. solani” value (R. solani [2]; [15]) was “no growth inhibition was observed”, the “growth inhibition, R. solani” value (R. solani [2]; wells 0.5-4% (w/v) calcium propionate) was “uninhibited” and the “Growth, R. solani” value (R. solani [2]; [16]) was 3.3 ± 0.4 cm. For the same compound, the “Growth, R. solani” value (R. solani [2]; [17]) was 8.5 ± 0 cm, the “Growth, R. solani” value (R. solani [2]; [18]) was 8.5 ± 0 cm and the “growth inhibition in repeated experiments, M. poae” value (M. poae [3]; [19]) was “mixed”. The “Growth, M. Poae” value (M. poae [3]; [9]) was 1.1 ± 0.1 cm, the “Growth, M. Poae” value (M. poae [3]; [10]) was 1.5 ± 0.2 cm and the “Growth, M. Poae” value (M. poae [3]; [11]) was 2.1 ± 0.4 cm. For the same compound, the “Growth, M. Poae” value (M. poae [3]; [12]) was 3.1±0.4 cm, the “Growth, M. Poae” value (M. poae [3]; [13]) was 5.8 ± 0.7 cm and the “Growth, M. Poae” value (M. poae [3]; [14]) was 8.2 ± 0.5 cm. For the same compound, the “growth inhibition, M. poae” value (M. poae [3]; [15]) was “no growth inhibition was observed”, the “Growth, M. Poae” value (M. poae [3]; [16]) was 1.5 ± 0.2 cm and the “Growth, M. Poae” value (M. poae [3]; [17]) was 4.3 ± 0.1 cm. For the same compound, the “Growth, M. Poae” value (M. poae [3]; [18]) was 6.9 ± 0.1 cm, the “growth inhibition, M. poae” value (M. poae [3]; [20]) was “clear growth inhibition; also recorded: inhibited to a similar degree” and the “growth while calcium propionate was present, R. solani” value (R. solani [4]; [7]) was “growth was inhibited”. The “growth inhibition over two weeks after removal, R. solani” value (R. solani [4]; [8]) was “some minor growth inhibition”, the “growth three days following removal of calcium propionate, R. solani” value (R. solani [4]; concentrations examined (1-5% w/v)) was “robust growth was observed” and the “appearance of the turfgrass” value (turfgrass) was “appeared healthy”. For the same compound, the “growth inhibition in repeated experiments, S. homoeocarpa” value (S. homoeocarpa; [19]) was “mixed”, the “Growth, S. homeocarpa” value (S. homoeocarpa; [9]) was 2.8 ± 0.2 cm and the “Growth, S. homeocarpa” value (S. homoeocarpa; [10]) was 3.5 ± 0.3 cm. For the same compound, the “Growth, S. homeocarpa” value (S. homoeocarpa; [11]) was 3.8 ± 0.1 cm, the “Growth, S. homeocarpa” value (S. homoeocarpa; [12]) was 4.3 ± 0.3 cm and the “Growth, S. homeocarpa” value (S. homoeocarpa; [13]) was 6.2 ± 0.3 cm. For the same compound, the “Growth, S. homeocarpa” value (S. homoeocarpa; [14]) was 7.8 ± 0.6 cm, the “growth inhibition, S. homoeocarpa” value (S. homoeocarpa; [15]) was “no growth inhibition was observed” and the “Growth, S. homeocarpa” value (S. homoeocarpa; [16]) was 1.9 ± 0.3 cm. The “Growth, S. homeocarpa” value (S. homoeocarpa; [17]) was 4.5 ± 0.5 cm, the “Growth, S. homeocarpa” value (S. homoeocarpa; [18]) was 6.08±0.57 cm and the “Growth, S. homeocarpa” value (S. homoeocarpa; wells 0.5-4% (w/v) calcium propionate, day 7, average ± SD of two plates, listed as Cap) was 4.5 ± 0.6 cm. The “growth inhibition, S. homoeocarpa” value (S. homoeocarpa; [20]) was “clear growth inhibition”, the “growth in liquid culture, R. solani” value (R. solani [5]) was “no growth was observed” and the F. oxysporum growth (F. oxysporum; YPA amended with 1% CaP) was “not impacted”. For the same compound, the F. oxysporum growth (F. oxysporum; YPA amended with 4% or 15% CaP) was “unable to grow”, the “growth in liquid culture, M. poae” value (M. poae [6]) was “no growth was observed” and the “visual detection of Fusarium oxysporum infection” value (Fusarium oxysporum) was “could no longer be visually detected”.
